Experiments:
Type in all cases: in vivo, mouse
brain of EAE mice = test: Microarray, brain of EAE mice, effector phase (E), 24 h after treatment; ORY-2001 0.5 mg/kg, FTY720 1.0 mg/kg
Method: (§1) We evaluated differences in gene expression induced by the treatment using real-time PCR and by microarray hybridization analysis. First, total RNA was isolated from brain and spinal cord segments from EAE mice using Qiazol™ and the RNeasy MiniKit™ extraction kit (Qiagen). Evaluation of RNA quality was performed with the Agilent 2100 bioanalyzer and NanoDrop™ ND-1000 (Thermo Scientific, Dartford, Kent, UK). After DNAse I treatment, RNA (1 µg/sample) was reverse transcribed using RevertAid First strand cDNA Synthesis kit (Fermentas) and random hexamer primers. For evaluating the expression of the inflammatory markers TNFα, IL-1β, IP10, IL-4, and CCL5, real time PCR was performed by using iQ SYBR Green Supermix (Bio-Rad, Feldkirchen, Germany) according to manufacturer’s instructions in a BIORAD CFX96 thermal cycler. Primer sequences and PCR conditions are indicated in Supplementary Materials Table S3. […]
(§2) For the gene expression studies, data from microarray assays were normalized by modified nonlinear Q-splines normalization method and Log2(Sample/Vehicle) values calculated without background correction (which permits robust selection of differentially expressed genes yet may lead to sub-estimation of the magnitude of change for genes expressed near the detection limit). Differential expression was assessed with the proprietary Polyphemus software using robust statistics on the average technical replicates (3 replicates/gene oligo datapoint) after removing eventual outlier points (caused by dust or array imperfections). […] The p values were calculated after outlier elimination based on the absolute value of the regularized t-statistics, which uses a Bayesian framework to derive the algorithm, using internal replicated controls to assess the minimum technical variability of the process. Correlation between gene expression changes induced by different treatments was analysed by calculating the Pearson correlation coefficient r using the Log2(Treatment/Veh) values for all genes expressed above background level (n). […]

spinal cord of EAE mice [1] = test: EAE, histopathology of spinal cord (demyelination plaques, infiltration); conditions: ORY-2001 0.5 mg/kg; for infiltrating/demyelinating plaques in spinal cord: day 17, FTY720 1.0 mg/kg
Method: Cervical and lumbar spinal cord segments of spinal cords obtained from EAE mice sacrificed on day 17 or 26 post-immunization were divided and processed for inclusion and sectioning in paraffin and for inclusion in an optimal cutting temperature (OCT) compound and future cryosectioning of the samples. Spinal cord segments were immediately fixed with buffered 10% formalin for 48 h, dehydrated and included in paraffin using standard techniques. For a preliminary analysis, transversal sections (4 µm thickness) were stained with Luxol fast blue, cresyl violet, and hematoxylin following the Klüver–Barrera technique and were analyzed for the presence of areas of demyelination and cell infiltration using a light microscope (Leica, DM2000). After hematoxylin/eosin staining in the TMEV model, cell infiltration in the cervical and thoracic spinal cord was evaluated according to the criteria of Mansilla et al.: score 0: no lesion; 1: cellular infiltration only in the meninges; 2: very discrete and superficial infiltrates in the parenchyma; 3: moderate infiltration (less than 25%) in the white matter; 4: severe infiltration (less than 50%) in the white matter; and 5: high severe infiltration (>50%) in the white matter. The remaining spinal cord segments from EAE mice and from mice of the TMEV model were fixed with 4% paraformaldehyde/0.1 M phosphate buffer pH 7.4 for 12 h at 4 °C, cryopreserved in 30% sucrose in PBS for 24 h, embedded in OCT in liquid nitrogen, and stored at −80 °C prior to cryosectioning and immunohistochemistry. 20 and 30 µm-thick transversal cryostat sections from Tissue Tek embedded tissue were obtained from EAE and TMEV samples, respectively, and kept in a cryoprotection solution (30% ethylene glycol, 10 mg/mL polyvinylpyrrolidone-40 (PVP-40), 300 mg/mL sucrose in 60 mM PB) at −20 °C. Mouse #6 from the TMEV + vehicle group died on day 77 post-infection and was therefore not included.

spinal cord of EAE mice [2] = test: Microarray, spinal cord of EAE mice, effector phase (E), 24 h after treatment; ORY-2001 0.5 mg/kg, FTY720 1.0 mg/kg
Method: as §1, with “S3. Microarray studies were performed by using DNA microarray oligo probes designed with Tethys, Oryzon’s proprietary software which is based on the in silico thermodynamic simulation of hybridization. Agilent probes were added for genes which yielded no probes, complying with Tethys criteria. Control probes were used to assess detection limits and range, to verify spatial homogeneity, and to determine experimental within-array variation. Microarray slides were synthesized by Agilent. Total RNA (0.5 µg) amplification and labeling with Cy3 or Cy5 was carried out using a modified Eberwine mRNA amplification procedure employing the MessageAmp™ II aRNA Amplification kit from Ambion (ThermoFisher Scientific, Oxford, UK).” for “S3.”
as §2

spleen cells of EAE mice = test: EAE, autoreactive response of spleen cells from treated mice (proliferation, cytokines/chemokines); conditions: ORY-2001 0.5 mg/kg; for IFNγ and IL-4 in Con A-stimulated spleen cells: FTY720 1.0 mg/kg
Method: Spleen and draining lymph node (DLN) cells (10^6/mL) collected from EAE mice were stimulated in complete medium (RPMI 1640 containing 10% FBS, 50 µM 2-ME, 2 mM L-glutamine, 100 U/mL penicillin, and 100 µg/mL streptomycin) with 15 µM MOG35–55. After 48 h, cytokine (IL-4, TNF-alpha, IFN-gamma) and chemokine (IP-10 and MCP1) contents in culture supernatants were determined by sandwich ELISAs using capture/biotinylated detection Abs according to the manufacturer’s recommendations. The antibodies used are indicated in Supplementary Materials Table S4. Cell proliferation was evaluated after 72 h by adding 2.5 µCi/mL tritiated-thymidine during the last 8 h of culture and determining cpm incorporation in a Microbeta counter. We used T cell activation with an anti-CD3 […] antibody (1 µg/mL) or ConA (2.5 µg/mL) as controls of unspecific polyclonal stimulation.

Compound	expression of Cox1 (brain of EAE mice)	expression of pituitary markers Gh, Prl, Pomc, Cga (brain of EAE mice)	infiltrating/demyelinating plaques in spinal cord (spinal cord of EAE mice [1])	expression of Ogn (spinal cord of EAE mice [2])	IFNγ and IL-4 in Con A-stimulated spleen cells (spleen cells of EAE mice; day 17)	plaques with inflammatory infiltrates and areas of demyelination (spinal cord of EAE mice [1]; day 26, lumbar and cervical, ORY-LSD1 180 µg/kg)	expression of Aif1, Bst2, Rgs4 and Mtap9 (spinal cord of EAE mice [2])	expression of Ptpn11, Kif1b and Pik3r1 (spinal cord of EAE mice [2])	IP-10 and MCP-1 production induced by MOG35–55 (spleen cells of EAE mice; day 17)	MOG35–55-induced proliferation of spleen cells (spleen cells of EAE mice; day 17)	TNF-alpha and MCP-1 levels, MOG35–55-specific recall response (spleen cells of EAE mice; day 26)	IFNγ, IL-17 and IP-10 levels, MOG35–55-specific recall response (spleen cells of EAE mice; day 26, ORY-LSD1 180 µg/kg)	IL-4 production by spleen cells (spleen cells of EAE mice; day 26, ORY-LSD1 180 µg/kg)	MOG35–55- and anti-CD3-stimulated proliferation of spleen lymphocytes (spleen cells of EAE mice; day 26, ORY-LSD1 180 µg/kg)
CCCCCCCCc1ccc(CCC(N)(CO)CO)cc1 [FTY720, Fingolimod, reference compound]	induction of Cox1	potently downregulated the pituitary markers Gh, Prl, Pomc, and Cga	reduced the number and size of demyelinating plaques in cervical but not in lumbar sections	downregulated by FTY720	reduced the levels of IFNγ and increased IL-4 release	–	–	–	–	–	–	–	–	–
Nc1nnc(CN[C@@H]2C[C@H]2c2ccc(OCc3ccccc3)cc2)o1 [ORY-2001]	–	potently downregulated the pituitary markers Gh, Prl, Pomc, and Cga	reduced the presence of infiltrating/demyelinating plaques in both cervical and lumbar segments	preserved the expression of Ogn	neither affected such cytokines (at the time of study) nor TNF-alpha	significantly reduced the number of plaques	downregulated Aif1	prevented the induction of Ptpn11	significant increase in the production of the pro-inflammatory chemokines IP-10 and MCP-1	significantly reduced the MOG35–55-induced proliferation of spleen cells	significantly reduced the levels of TNF-alpha and MCP-1	produced equivalent levels of IFNγ, IL-17, and IP-10	increased with both treatments	reduced MOG35–55 but not anti-CD3 -stimulated proliferation

— paper PMC9323733, “Efficacy of Vafidemstat in Experimental Autoimmune Encephalomyelitis Highlights the KDM1A/RCOR1/HDAC Epigenetic Axis in Multiple Sclerosis” (Pharmaceutics, 2022)
